Laboratory results from patent publication US20160159940A1, “POLYDENDRONS” (The Univeristy of Liverpool, priority 2013, published 2016).

Experiments:
Caco-2 cells [1] = assay: MTT assay of Caco-2 cells (cytotoxicity); format: cell-based
Protocol: (§1) Caco-2 cells were purchased from American Type Culture Collection (ATCC, USA) and maintained in Dulbecco's Modified Eagles Medium (DMEM) supplemented with 15% filtered sterile foetal bovine serum. Cells were incubated at 37° C. and 5% CO2 and were routinely sub-cultured every 4 days when 90% confluent. Cell count and viability was determined using a Countess automated cell counter (Invitrogen).
(§2) Caco-2 cells were seeded at a density of 1.0×10^4 cells/100 μl in DMEM supplemented with 15% FBS into each well of a 96 well plate (Nunclon, Denmark) and incubated at 37° C. and 5% CO2. Cells from 4 separate flasks of biological replicates of each cell type were used (N1-4) to improve statistical power. Media was then aspirated from […] and replaced with media containing each polydendron or aqueous Nile Red solution at an equivalent 1 μM Nile Red concentration then diluted 1:1 in media across the plate up to column 11. Column 12 served as a negative control and consisted of media and untreated cells. Following polydendron addition, the plates were incubated for 24 hours or 120 hours at 37° C., 5% CO2 prior to assessment of cytotoxicity.
Following incubation of treated plates for 24 h or 120 h, 20 μl of 5 mg ml^−1 MTT reagent was added to each well and incubated for 2 hours. Subsequently, 100 μL MTT lysis buffer (50% N—N-Dimethylformamide in water containing 20% SDS, 2.5% glacial acetic acid and 2.5% hydrochloric acid, pH 4.7) was added to each well to lyse overnight at 37° C., 5% CO2. Following incubation the absorbance of each well was read using a Tecan Genosis plate reader at 560 nm (Tecan Magellan, Austria).

Caco-2 cells [2] = assay: ATP assay (CellTiter-Glo) of Caco-2 cells (cytotoxicity); format: cell-based
Protocol: as §1, §2
Following incubation of treated plates for 24 h or 120 h, cells were equilibrated to room temperature for approximately 30 minutes. All but 20 μl of media was removed from each well and 20 μl CellTiter-Glo® (Promega, UK) reagent was added. All reagents were made fresh and in accordance with the manufacturer's instructions. Plates were put on an orbital shaker for 10 minutes to mix contents and allow for stabilisation of luminescence signal. Luminescence was then measured using a Tecan Genios plate reader (Tecan Magellan, Austria).

[3] = Transcellular permeability of Nile Red across Caco-2 cell monolayers; format: in vitro ADME; details: human, Caco-2, 1 hour incubation, 1 μM Nile Red, mean of biological triplicate
Protocol: (§3) Transwells were seeded with 3.5×10^4 cells per well and propagated to a monolayer over a 21 day period, during which media in the apical and basolateral wells was changed every other day. Trans-epithelial electrical resistance (TEER) values were monitored until they were >1300Ω. 1 μM of Nile Red polydendron or 1 μM aqueous Nile Red was added to the apical chamber of 4 wells and the basolateral chamber of 4 wells to quantify transport in both Apical to Basolateral (A>B) and Basolateral to Apical (B>A) direction and sampled on an hourly basis over a 4 h time period. Apparent permeability coefficient was then determined by the amount of compound transported over time using the equation: […]
(§4) where (dQ/dt) is the amount per time (nmol·sec^−1), A is the surface area of the filter and C0 is the starting concentration of the donor chamber (1 μM).
(§5) 100 μl of each collected sample was mixed with 900 μl acetone, vortexed, sonicated for 6 minutes and centrifuged at 13300 rpm for 3 minutes. The supernatant was completely dried in a vacuum centrifuge at 30° C. until the dry solid sample was left. This was reconstituted in 150 μl acetonitrile, transferred to a 96-well black walled, flat bottomed plate and measured for fluorescence intensity excitation wavelength 480 nm, emission wavelength 560 nm using a Tecan Genios plate reader (Tecan Magellan, Austria).

Caco-2 cell monolayers = assay: as above; format: in vitro ADME; details: 1 hour incubation
Protocol: as §3, §4, §5

[4] = 24 hour incubation, range of concentrations investigated
[5] = 120 hour incubation, range of concentrations investigated

CCN(CC)c1ccc2nc3c4ccccc4c(=O)cc-3oc2c1 [aqueous Nile Red, Nile red]
metabolic turnover of Caco-2 cells compared to untreated cells (Caco-2 cells [1]; [4]): did not affect metabolic turnover
EC50 (Caco-2 cells [1]; 120 hour incubation, FIG. 7): No EC50
viability of Caco-2 cells (Caco-2 cells [1]; [5]): did not affect the viability
EC50 (Caco-2 cells [1]; Homo sapiens, Caco-2, 24 hour incubation, FIG. 6, read-out: EC50): 1160 nM
ATP presence compared to untreated cells (Caco-2 cells [2]; [4]): not affected
EC50 (Caco-2 cells [2]; 120 hour incubation, FIG. 9): No EC50
viability compared to untreated cells (Caco-2 cells [2]; [5]): not affected
EC50 (Caco-2 cells [2]; Homo sapiens, Caco-2, 24 hour incubation, FIG. 8, read-out: EC50): 1950 nM
Papp A→B at 1 h, 1 μM ([3]; read-out: Papp Apical > Basolateral): 23.7 ×10⁻⁶ cm/s
Papp B→A at 1 h, 1 μM ([3]; read-out: Papp Basolateral > Apical): 6.38 ×10⁻⁶ cm/s
A > B/B > A ratio (Caco-2 cell monolayers): 3.7140
